The record followed here is patent publication EP4461368A1, “5H-PYRROLO[3,2-B:5,4-C']DIPYRIDINE DERIVATIVES AND 6,7,8,9-TETRAHYDRO-5H-PYRROLO[3,2-B:5,4-C']DIPYRIDINE DERIVATIVES USEFUL IN THE TREATMENT OF CANCER” (Institut Regional du Cancer de Montpellier, priority 2023, dated 2024).

Type in all cases: cell-based
One assay deals with T1, Chromatin-MDM2 (Homo sapiens, UniProt Q00987).
T1 construct: endogenous in cells; host or cells: IB111 liposarcoma cells
Put plainly: MDM2 degradation by western blot and immunofluorescence, chromatin-bound MDM2. The conditions noted are these: degradation efficacy, cells collected 18 hours after compound addition. The procedure: (§1) MDM2 degradation is measured by western blot and immunofluorescence.
(§2) Cells were seeded in 6-well plates (Sarsted) in complete DMEM medium as to obtain triplicates for each condition (500 000 cells/well). After 24 hours, the compounds were added to the cells. Then, 18 hours later cells were collected for western blotting or immunofluorescence. • Western Blot: Cells were collected in Laemmli buffer, boiled and analyzed in 8% acrylamide gel. • Immunofluorescence: Cancer cells were fixed with paraformaldehyde (PFA) 4% for 15 minutes then permeabilized for 15 minutes at RT with phosphate-buffered saline (PBS) Triton 0.1% and blocked with Phosphate buffered saline-[…] (PBS-BSA) 0.3% for 1 hour at RT before overnight incubation at 4 °C with an anti- mouse monoclonal antibody against MDM2 (MABE340 Millipore). Immunodetection was performed using an Alexa 488-conjugated anti-mouse IgG antibody (Thermo Fisher) for 45 minutes at RT. Cover glasses were mounted with Mowiol (Biovalley) and DAPI (Sigma) before analysis on a Zeiss apotome.

The next assay deals with T2, Cytoplasmic- MDM2 (Homo sapiens, UniProt Q00987).
T2 construct: endogenous in cells; host or cells: hPac / ZR75.1 cancer cells
T2 sequence (Q00987 whole entry): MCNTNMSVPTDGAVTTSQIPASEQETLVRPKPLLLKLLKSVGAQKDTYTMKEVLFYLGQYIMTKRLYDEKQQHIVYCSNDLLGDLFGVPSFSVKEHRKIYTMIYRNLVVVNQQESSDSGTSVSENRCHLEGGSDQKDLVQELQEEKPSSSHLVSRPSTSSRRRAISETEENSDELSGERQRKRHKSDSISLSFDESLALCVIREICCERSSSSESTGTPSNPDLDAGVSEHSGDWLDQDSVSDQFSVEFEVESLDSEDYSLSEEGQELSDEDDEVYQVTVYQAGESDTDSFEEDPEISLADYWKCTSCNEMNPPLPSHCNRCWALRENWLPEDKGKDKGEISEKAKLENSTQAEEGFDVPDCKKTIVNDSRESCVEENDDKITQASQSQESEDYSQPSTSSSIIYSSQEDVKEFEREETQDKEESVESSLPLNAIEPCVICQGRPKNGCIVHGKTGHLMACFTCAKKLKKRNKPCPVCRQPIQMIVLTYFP
As to the kind of experiment: MDM2 degradation by western blot and immunofluorescence, cytoplasmic MDM2. Conditions: degradation efficacy, cells collected 18 hours after compound addition. The procedure:
as §1, §2
(In western blotting, separated proteins are transferred to a membrane and probed.)

The subject of assay [1] is cancer cells exhibiting recruitment of MDM2 to chromatin (IB111). Put plainly: Cell survival, Sulforhodamine B assay (SRB assay), cells with recruitment of MDM2 to chromatin. The procedure: (§3) Cell survival after MDM2 inhibitor treatment (IC50) was determined using the Sulforhodamine B assay (SRB assay).
(§4) Cells were seeded in 96-well plates (Sarsted) in complete DMEM medium as to obtain triplicates for each condition (5 000 cells/well). After 24 hours, serial dilutions of the indicated compounds were added to the cells. […] Fixed SRB was finally dissolved in 10 mM Tris-HCl solution and 560nm absorbance was read using a PHERAstar FSX plate reader.
(In general: The SRB assay estimates cell density from bound dye.)

In assay [2] the test system is cancer cells not exhibiting recruitment of MDM2 to chromatin (Hpac/ZR75.1). Put plainly: Cell survival, Sulforhodamine B assay (SRB assay), cells without recruitment of MDM2 to chromatin. Conditions: Hpac/ZR75.1 cells, treated for 72 hours with increasing concentrations. The procedure: as §3, §4
Setting [3] is: treated with increasing concentrations.

T1 sequence (Q00987 whole entry): as above

What is called IC50 is the concentration that gives 50% inhibition. The low end stands for greater potency in that assay, the high end for weaker potency in that assay. Regarding “2-methoxy-6-(5,6,7,8-tetrahydronaphthalen-1-yl)-5H-pyrrolo[3,2-b:5,4-c'] dipyridine [Compound 14]”, the Chromatin-MDM2 degradation result on Chromatin-MDM2 is listed as “+++ (+++ ≥ 80%)”. In addition, the “Cytoplasmic- MDM2 degradation” value at Cytoplasmic- MDM2 was “- (<25%: no degradation: indicated "-" in the table)”. The IC50 in assay [1] (treated for 72 hours with increasing concentrations) was < 0.5 µM. Also, the “efficiency on cancer cells not exhibiting recruitment of MDM2 to chromatin” value in assay [2] is reported as “not efficient”.
Turning to `COc1ccc2[nH]c3c(-c4cccc5ccccc45)nccc3c2n1` [Compound 1, 2-methoxy-6-(naphthalen-1-yl)-5H-pyrrolo[3,2-b:5,4-c']dipyridine], the Chromatin-MDM2 degradation result on Chromatin-MDM2 is recorded as “+++ (+++ ≥ 80%)”. Also, at Cytoplasmic- MDM2, the “Cytoplasmic- MDM2 degradation” value is “- (<25%: no degradation: indicated "-" in the table)”. In assay [1] (setting [3]), the IC50 is < 0.5 µM. For the same compound, the “efficiency on cancer cells not exhibiting recruitment of MDM2 to chromatin” value in assay [2] is listed as “not efficient”.
As for `COc1ccc2[nH]c3c(-c4ccnc5nccnc45)nccc3c2n1` [Compound 3, 2-methoxy-6-(pyrido[2,3-b]pyrazin-8-yl)-5H-pyrrolo[3,2-b:5,4-c'] dipyridine], on Chromatin-MDM2, the Chromatin-MDM2 degradation result was “+ (25%≤+<40%)”. The “Cytoplasmic- MDM2 degradation” value on Cytoplasmic- MDM2 is reported as “- (<25%: no degradation: indicated "-" in the table)”.
Consider `COc1ccc2[nH]c3c(-c4cccc5ccccc45)nccc3c2n1.Cl` [Compound 4, 2-methoxy-6-(naphthalen-1-yl)-5H-pyrrolo[3,2-b:5,4-c']dipyridine hydrochloride], for which the Chromatin-MDM2 degradation entry on Chromatin-MDM2 is reported as “+++ (+++ ≥ 80%)”. Moreover, the “Cytoplasmic- MDM2 degradation” value on Cytoplasmic- MDM2 is recorded as “- (<25%: no degradation: indicated "-" in the table)”. Further, the “efficiency on cancer cells not exhibiting recruitment of MDM2 to chromatin” value in assay [2] was “not efficient”.
For the compound `COc1ccc2[nH]c3c(-c4ccnc5ccccc45)nccc3c2n1` [Compound 6, 2-methoxy-6-(quinolin-4-yl)-5H-pyrrolo[3,2-b:5,4-c']dipyridine], the Chromatin-MDM2 degradation entry on Chromatin-MDM2 was “+ (25%≤+<40%)”. Further, the “Cytoplasmic- MDM2 degradation” value on Cytoplasmic- MDM2 was “- (<25%: no degradation: indicated "-" in the table)”.
Regarding `COc1ccc2[nH]c3c(-c4cccc5ccccc45)nccc3c2n1.O=C(O)/C=C/C(=O)O` [Compound 10, 2-methoxy-6-(naphthalen-1-yl)-5H-pyrrolo[3,2-b:5,4-c']dipyridine fumarate], on Chromatin-MDM2, the Chromatin-MDM2 degradation entry is “+++ (+++ ≥ 80%)”. For the same compound, the “Cytoplasmic- MDM2 degradation” value on Cytoplasmic- MDM2 is “- (<25%: no degradation: indicated "-" in the table)”. Moreover, the “efficiency on cancer cells not exhibiting recruitment of MDM2 to chromatin” value in assay [2] was “not efficient”.
With `COc1ccc2[nH]c3c(-c4cccc5ccccc45)nccc3c2n1.O=C(O)CC(O)(CC(=O)O)C(=O)O` [Compound 11, 2-methoxy-6-(naphthalen-1-yl)-5H-pyrrolo[3,2-b:5,4-c']dipyridine 2-hydroxypropane-1,2,3-tricarboxylate], the Chromatin-MDM2 degradation entry at Chromatin-MDM2 was “+++ (+++ ≥ 80%)”. Further, the “Cytoplasmic- MDM2 degradation” value on Cytoplasmic- MDM2 is reported as “- (<25%: no degradation: indicated "-" in the table)”. Also, the “efficiency on cancer cells not exhibiting recruitment of MDM2 to chromatin” value in assay [2] is listed as “not efficient”.
Regarding `COc1ccc2[nH]c3c(-c4cccc5ccccc45)nccc3c2n1.O=P(O)(O)O` [Compound 12, 2-methoxy-6-(naphthalen-1-yl)-5H-pyrrolo[3,2-b:5,4-c']dipyridine phosphate], on Chromatin-MDM2, the Chromatin-MDM2 degradation result was “++ (40%≤++<80%)”. For the same compound, the “Cytoplasmic- MDM2 degradation” value on Cytoplasmic- MDM2 is “- (<25%: no degradation: indicated "-" in the table)”. Moreover, the “efficiency on cancer cells not exhibiting recruitment of MDM2 to chromatin” value in assay [2] is “not efficient”.
With `COc1ccc2[nH]c3c(-c4cccc5ccccc45)nccc3c2n1.O=S(=O)(O)O` [Compound 13, 2-methoxy-6-(naphthalen-1-yl)-5H-pyrrolo[3,2-b:5,4-c']dipyridine sulfate], the Chromatin-MDM2 degradation result on Chromatin-MDM2 is “++ (40%≤++<80%)”. In addition, the “Cytoplasmic- MDM2 degradation” value at Cytoplasmic- MDM2 was “- (<25%: no degradation: indicated "-" in the table)”. In addition, the “efficiency on cancer cells not exhibiting recruitment of MDM2 to chromatin” value in assay [2] is given as “not efficient”.
`COc1ccc2[nH]c3c(-c4ccc(F)c5ccccc45)nccc3c2n1` [Compound 15, 6-(4-fluoronaphthalen-1-yl)-2-methoxy-5H-pyrrolo [3,2-b: 5,4-c'] dipyridine]: the Chromatin-MDM2 degradation result at Chromatin-MDM2 is “++ (40%≤++<80%)”. Further, at Cytoplasmic- MDM2, the “Cytoplasmic- MDM2 degradation” value is recorded as “- (<25%: no degradation: indicated "-" in the table)”. Also, the IC50 in assay [1] (setting [3]) was < 0.5 µM. In addition, the “efficiency on cancer cells not exhibiting recruitment of MDM2 to chromatin” value in assay [2] is recorded as “not efficient”.
The matching figures for `COc1ccc2[nH]c3c(-c4cccc5c4CCCC5)nccc3c2n1.Cl` [Compound 16, 2-methoxy-6-(5,6,7,8-tetrahydronaphthalen-1-yl)-5H-pyrrolo[3,2-b:5,4-c']dipyridine hydrochloride]: “+++ (+++ ≥ 80%)”, “- (<25%: no degradation: indicated "-" in the table)”, < 0.5 µM and “not efficient”.
As for `COc1ccc2[nH]c3c(-c4ccc(F)c5ccccc45)nccc3c2n1.Cl` [Compound 17, 6-(4-fluoronaphthalen-1-yl)-2-methoxy-5H-pyrrolo [3,2-b: 5,4-c']dipyridine hydrochloride], the Chromatin-MDM2 degradation result at Chromatin-MDM2 was “+ (25%≤+<40%)”. Moreover, the “Cytoplasmic- MDM2 degradation” value on Cytoplasmic- MDM2 was “- (<25%: no degradation: indicated "-" in the table)”.
